Earlier results on two compounds are cited in patent publication US20100151459A1, “MARKER FOR DETECTING THE PROPOSED EFFICACY OF TREATMENT” (priority 2007, published 2010).

Data set [1] relates to reserpinized (hypodopaminergic) rats.
Data set [2] concerns acutely exacerbated schizophrenic inpatients. The note with it: 18 mg/day, 3-week treatment.

As for `O=C1CCc2ccc(OCCCCN3CCN(c4cccc(Cl)c4Cl)CC3)cc2N1` [aripiprazole], the locomotor activity result in data set [1] was “does not increase locomotor activity”.
Regarding `CNc1cc(OC)c(C(=O)NC2CCN(Cc3ccccc3)C2C)cc1Cl` (stereo not drawn) [nemonapride], the “percentage improvement in other subgrouped symptoms (negative, anxiety-depression, excitement and cognitive symptoms)” value in data set [2] (between the two genotype groups) was “similar”. In data set [2] (one or two A1 alleles (n=14) vs no A1 allele (n=11)), the “percentage improvement in total BPRS and positive symptoms” value is reported as “significantly higher percentage improvement”.
